Test results taken from the NIST ThermoML archive (doi:10.1016/j.jct.2014.07.019).
Numbers after ± are expanded uncertainties.

Key:
[1] = 100 kPa, Liquid; for speed of sound: Frequency=3 MHz, Sing-around technique in a fixed-path interferometer; for mass density: Vibrating tube method
[2] = xn = mol fraction of the nth substance listed; conditions: 100 kPa, Liquid, x2 = 0; for speed of sound: Frequency=3 MHz, Sing-around technique in a fixed-path interferometer; for mass density: Vibrating tube method

Row | SMILES | speed of sound ([1]; 293.15 K) | mass density ([1]; 293.15 K) | speed of sound ([1]; 298.15 K) | mass density ([1]; 298.15 K) | speed of sound ([1]; 303.15 K) | mass density ([1]; 303.15 K) | speed of sound ([1]; 308.15 K) | mass density ([1]; 308.15 K) | speed of sound ([1]; 313.15 K) | mass density ([1]; 313.15 K) | speed of sound ([2]; 293.15 K) | mass density ([2]; 293.15 K) | speed of sound ([2]; 298.15 K) | mass density ([2]; 298.15 K) | speed of sound ([2]; 303.15 K) | mass density ([2]; 303.15 K) | speed of sound ([2]; 308.15 K) | mass density ([2]; 308.15 K) | speed of sound ([2]; 313.15 K) | mass density ([2]; 313.15 K)
1 | CCCCO [butan-1-ol] | 1257.5 ± 1.2 m/s | 809.807 ± 0.15 kg/m3 | 1240.6 ± 1.2 m/s | 805.986 ± 0.15 kg/m3 | 1223.7 ± 1.2 m/s | 802.139 ± 0.15 kg/m3 | 1207 ± 1.2 m/s | 798.261 ± 0.15 kg/m3 | 1190.5 ± 1.2 m/s | 794.385 ± 0.15 kg/m3 |  |  |  |  |  |  |  |  |  | 
2 | CC(C)O [propan-2-ol] | 1168.5 ± 1.2 m/s | 785.739 ± 0.15 kg/m3 | 1148 ± 1.2 m/s | 781.588 ± 0.15 kg/m3 | 1132.2 ± 1.2 m/s | 777.468 ± 0.15 kg/m3 | 1114.3 ± 1.1 m/s | 773.151 ± 0.15 kg/m3 | 1096.2 ± 1.1 m/s | 768.446 ± 0.15 kg/m3 |  |  |  |  |  |  |  |  |  | 
3 | CC(C)O [propan-2-ol] + CCCCOCC(C)O |  |  |  |  |  |  |  |  |  |  | 1168.5 ± 1.2 m/s | 785.739 ± 0.15 kg/m3 | 1148 ± 1.2 m/s | 781.588 ± 0.15 kg/m3 | 1132.2 ± 1.2 m/s | 777.468 ± 0.15 kg/m3 | 1114.3 ± 1.1 m/s | 773.151 ± 0.15 kg/m3 | 1096.2 ± 1.1 m/s | 768.446 ± 0.15 kg/m3
4 | CCC(C)O (stereo not given) [butan-2-ol] + CCCCOCC(C)O |  |  |  |  |  |  |  |  |  |  | 1230.2 ± 1.3 m/s | 806.679 ± 0.16 kg/m3 | 1213.3 ± 1.3 m/s | 802.563 ± 0.16 kg/m3 | 1197.2 ± 1.2 m/s | 798.352 ± 0.16 kg/m3 | 1177 ± 1.2 m/s | 794.058 ± 0.17 kg/m3 | 1158.9 ± 1.2 m/s | 789.668 ± 0.17 kg/m3
5 | CCCCOCC(C)O (stereo not given) [1-butoxy-2-propanol] | 1279 ± 1.3 m/s | 879.031 ± 0.15 kg/m3 | 1260.9 ± 1.3 m/s | 874.632 ± 0.15 kg/m3 | 1242.9 ± 1.3 m/s | 870.204 ± 0.15 kg/m3 | 1224.9 ± 1.3 m/s | 865.737 ± 0.15 kg/m3 | 1207 ± 1.3 m/s | 861.241 ± 0.15 kg/m3 |  |  |  |  |  |  |  |  |  | 
6 | CCC(C)O (stereo not given) [butan-2-ol] | 1230.2 ± 1.3 m/s | 806.679 ± 0.16 kg/m3 | 1213.3 ± 1.3 m/s | 802.563 ± 0.16 kg/m3 | 1197.2 ± 1.2 m/s | 798.352 ± 0.16 kg/m3 | 1177 ± 1.2 m/s | 794.058 ± 0.17 kg/m3 | 1158.9 ± 1.2 m/s | 789.668 ± 0.17 kg/m3 |  |  |  |  |  |  |  |  |  | 

Results, then the compound that gave them:

Row | speed of sound ([1]; 293.15 K) | mass density ([1]; 293.15 K) | speed of sound ([1]; 298.15 K) | mass density ([1]; 298.15 K) | speed of sound ([1]; 303.15 K) | mass density ([1]; 303.15 K) | speed of sound ([1]; 308.15 K) | mass density ([1]; 308.15 K) | speed of sound ([1]; 313.15 K) | mass density ([1]; 313.15 K) | speed of sound ([2]; 293.15 K) | mass density ([2]; 293.15 K) | speed of sound ([2]; 298.15 K) | mass density ([2]; 298.15 K) | speed of sound ([2]; 303.15 K) | mass density ([2]; 303.15 K) | speed of sound ([2]; 308.15 K) | mass density ([2]; 308.15 K) | speed of sound ([2]; 313.15 K) | mass density ([2]; 313.15 K) | SMILES
7 |  |  |  |  |  |  |  |  |  |  | 1224.2 ± 1.3 m/s | 804.144 ± 0.16 kg/m3 | 1207 ± 1.3 m/s | 800.13 ± 0.16 kg/m3 | 1189.8 ± 1.2 m/s | 796.08 ± 0.16 kg/m3 | 1172.8 ± 1.2 m/s | 792.001 ± 0.17 kg/m3 | 1156.2 ± 1.2 m/s | 787.884 ± 0.17 kg/m3 | CCCO [propan-1-ol] + CCCCOCC(C)O
8 | 1224.2 ± 1.3 m/s | 804.144 ± 0.16 kg/m3 | 1207 ± 1.3 m/s | 800.13 ± 0.16 kg/m3 | 1189.8 ± 1.2 m/s | 796.08 ± 0.16 kg/m3 | 1172.8 ± 1.2 m/s | 792.001 ± 0.17 kg/m3 | 1156.2 ± 1.2 m/s | 787.884 ± 0.17 kg/m3 |  |  |  |  |  |  |  |  |  |  | CCCO [propan-1-ol]
9 |  |  |  |  |  |  |  |  |  |  | 1257.5 ± 1.2 m/s | 809.807 ± 0.15 kg/m3 | 1240.6 ± 1.2 m/s | 805.986 ± 0.15 kg/m3 | 1223.7 ± 1.2 m/s | 802.139 ± 0.15 kg/m3 | 1207 ± 1.2 m/s | 798.261 ± 0.15 kg/m3 | 1190.5 ± 1.2 m/s | 794.385 ± 0.15 kg/m3 | CCCCO [butan-1-ol] + CCCCOCC(C)O
